Reference: ChEMBL document CHEMBL6092180 (Eur J Med Chem, 2024)
≈ marks a conversion by molar mass, not a printed value.

Columns and labels:
Assay type in all cases: functional
Candida albicans [1] = assay: Antifungal activity against fluconazole-resistant Candida albicans clinical isolate 103 assessed as inhibition of fungal growth by CLSI M27-A3 guidelines based method
Candida albicans [2] = assay: Antifungal activity against Candida albicans GIM 2.194 assessed as inhibition of fungal growth by CLSI M27-A3 guidelines based method
Candida tropicalis = assay: Antifungal activity against Candida tropicalis GIM 2.183 assessed as inhibition of fungal growth by CLSI M27-A3 guidelines based method
Candida albicans [3] = assay: Antifungal activity against fluconazole-resistant Candida albicans CaR assessed as inhibition of fungal growth by CLSI M27-A3 guidelines based method
Candida albicans [4] = assay: Antifungal activity against fluconazole-resistant Candida albicans clinical isolate 632 assessed as inhibition of fungal growth by CLSI M27-A3 guidelines based method
Candida parapsilosis = assay: Antifungal activity against Candida parapsilosis GIM 2.190 assessed as inhibition of fungal growth by CLSI M27-A3 guidelines based method; conditions: Lodderomyces parapsilosis
Nakaseomyces glabratus = assay: Antifungal activity against Candida glabrata assessed as inhibition of fungal growth by CLSI M27-A3 guidelines based method
Candida albicans [5] = assay: Antifungal activity against fluconazole-resistant Candida albicans clinical isolate 311 assessed as inhibition of fungal growth by CLSI M27-A3 guidelines based method
Candida albicans [6] = assay: Antifungal activity against Candida albicans SC5314 assessed as inhibition of fungal growth by CLSI M27-A3 guidelines based method
Cryptococcus neoformans = assay: Antifungal activity against Cryptococcus neoformans CGMCC 2.3161 assessed as inhibition of fungal growth by CLSI M27-A3 guidelines based method
Candida albicans [7] = assay: Antifungal activity against fluconazole-resistant Candida albicans clinical isolate 904 assessed as inhibition of fungal growth by CLSI M27-A3 guidelines based method
Candida albicans [8] = assay: Antifungal activity against fluconazole-resistant Candida albicans clinical isolate 100 assessed as inhibition of fungal growth by CLSI M27-A3 guidelines based method
Aspergillus fumigatus = assay: Antifungal activity against Aspergillus fumigatus cgmcc 3.7795 assessed as inhibition of fungal growth by CLSI M27-A3 guidelines based method
Candida albicans [9] = assay: Antifungal activity against fluconazole and iodiconazole resistant Candida albicans clinical isolate 17# assessed as inhibition of fungal growth by CLSI M27-A3 guidelines based method
Candida albicans [10] = assay: Antifungal activity against fluconazole-resistant Candida albicans clinical isolate 901 assessed as inhibition of fungal growth by CLSI M27-A3 guidelines based method
Pichia kudriavzevii = assay: Antifungal activity against Candida krusei GIM 2.1 assessed as inhibition of fungal growth by CLSI M27-A3 guidelines based method

Row | SMILES | MIC80 (Candida albicans [1]) [µg/mL] | MIC80 (Candida albicans [2]) [µg/mL] | MIC80 (Candida tropicalis) [µg/mL] | MIC80 (Candida albicans [3]) [µg/mL] | MIC80 (Candida albicans [4]) [µg/mL] | MIC80 (Candida parapsilosis) [µg/mL] | MIC80 (Nakaseomyces glabratus) [µg/mL] | MIC80 (Candida albicans [5]) [µg/mL] | MIC80 (Candida albicans [6]) [µg/mL] | MIC80 (Cryptococcus neoformans) [µg/mL] | MIC80 (Candida albicans [7]) [µg/mL] | MIC80 (Candida albicans [8]) [µg/mL] | MIC80 (Aspergillus fumigatus) [µg/mL] | MIC80 (Candida albicans [9]) [µg/mL] | MIC80 (Candida albicans [10]) [µg/mL] | MIC80 (Pichia kudriavzevii) [µg/mL]
1 | C[C@@H](N(C)Cc1ccc(C#Cc2ccc([N+](=O)[O-])cc2)cc1)[C@](O)(Cn1cncn1)c1ccc(F)cc1F | 8 (≈ 15.5 µM) | 0.006 (≈ 0.0116 µM) | 0.006 (≈ 0.0116 µM) | 0.25 (≈ 0.483 µM) | 4 (≈ 7.73 µM) | 0.006 (≈ 0.0116 µM) | 0.01 (≈ 0.0193 µM) | 16 (≈ 30.9 µM) | 0.013 (≈ 0.0251 µM) | 0.013 (≈ 0.0251 µM) | 32 (≈ 61.8 µM) | 16 (≈ 30.9 µM) | 0.05 (≈ 0.0966 µM) | 0.5 (≈ 0.966 µM) | 8 (≈ 15.5 µM) | 0.01 (≈ 0.0193 µM)
2 | C[C@@H](N(C)Cc1ccc(C#Cc2ccc(F)c(F)c2)cc1)[C@](O)(Cn1cncn1)c1ccc(F)cc1F | 8 (≈ 15.7 µM) | 0.025 (≈ 0.0492 µM) | 0.006 (≈ 0.0118 µM) | 0.25 (≈ 0.492 µM) | 4 (≈ 7.87 µM) | 0.006 (≈ 0.0118 µM) | 0.05 (≈ 0.0983 µM) | 8 (≈ 15.7 µM) | 0.013 (≈ 0.0256 µM) | 0.05 (≈ 0.0983 µM) | 16 (≈ 31.5 µM) | 8 (≈ 15.7 µM) | 0.1 (≈ 0.197 µM) | 0.5 (≈ 0.983 µM) | 8 (≈ 15.7 µM) | 0.03 (≈ 0.059 µM)
3 | C[C@@H](N(C)Cc1ccc(C#Cc2ccc(F)cc2)cc1)[C@](O)(Cn1cncn1)c1ccc(F)cc1F | 8 (≈ 16.3 µM) | 0.025 (≈ 0.051 µM) | 0.006 (≈ 0.0122 µM) | 0.25 (≈ 0.51 µM) | 4 (≈ 8.15 µM) | 0.006 (≈ 0.0122 µM) | 0.01 (≈ 0.0204 µM) | 16 (≈ 32.6 µM) | 0.025 (≈ 0.051 µM) | 0.013 (≈ 0.0265 µM) | 16 (≈ 32.6 µM) | 4 (≈ 8.15 µM) | 0.1 (≈ 0.204 µM) | 0.25 (≈ 0.51 µM) | 4 (≈ 8.15 µM) | 0.03 (≈ 0.0612 µM)
4 | Cc1ccc(C#Cc2ccc(CN(C)[C@H](C)[C@](O)(Cn3cncn3)c3ccc(F)cc3F)cc2)cc1 | 16 (≈ 32.9 µM) | 0.013 (≈ 0.0267 µM) | 0.006 (≈ 0.0123 µM) | 0.25 (≈ 0.514 µM) | 4 (≈ 8.22 µM) | 0.006 (≈ 0.0123 µM) | 0.01 (≈ 0.0206 µM) | 32 (≈ 65.8 µM) | 0.025 (≈ 0.0514 µM) | 0.025 (≈ 0.0514 µM) | 32 (≈ 65.8 µM) | 8 (≈ 16.4 µM) | 0.1 (≈ 0.206 µM) | 0.5 (≈ 1.03 µM) | 8 (≈ 16.4 µM) | 0.03 (≈ 0.0617 µM)
5 | C[C@@H](N(C)Cc1ccc(C#Cc2cc(F)c(F)cc2F)cc1)[C@](O)(Cn1cncn1)c1ccc(F)cc1F | 8 (≈ 15.2 µM) | 0.025 (≈ 0.0475 µM) | 0.006 (≈ 0.0114 µM) | 1 (≈ 1.9 µM) | 4 (≈ 7.6 µM) | 0.006 (≈ 0.0114 µM) | 0.05 (≈ 0.095 µM) | 16 (≈ 30.4 µM) | 0.013 (≈ 0.0247 µM) | 0.025 (≈ 0.0475 µM) | 32 (≈ 60.8 µM) | 8 (≈ 15.2 µM) | 0.2 (≈ 0.38 µM) | 2 (≈ 3.8 µM) | 8 (≈ 15.2 µM) | 0.05 (≈ 0.095 µM)
6 | C[C@@H](N(C)Cc1ccc(C#Cc2ccc(C#N)cc2)cc1)[C@](O)(Cn1cncn1)c1ccc(F)cc1F | 8 (≈ 16.1 µM) | 0.006 (≈ 0.0121 µM) | 0.006 (≈ 0.0121 µM) | 0.5 (≈ 1 µM) | 8 (≈ 16.1 µM) | 0.006 (≈ 0.0121 µM) | 0.01 (≈ 0.0201 µM) | 32 (≈ 64.3 µM) | 0.006 (≈ 0.0121 µM) | 0.006 (≈ 0.0121 µM) | 32 (≈ 64.3 µM) | 16 (≈ 32.2 µM) | 0.05 (≈ 0.1 µM) | 0.25 (≈ 0.502 µM) | 8 (≈ 16.1 µM) | 0.01 (≈ 0.0201 µM)
7 | C[C@@H](N(C)Cc1ccc(C#Cc2ccc(Br)cc2)cc1)[C@](O)(Cn1cncn1)c1ccc(F)cc1F | 8 (≈ 14.5 µM) | 0.025 (≈ 0.0453 µM) | 0.006 (≈ 0.0109 µM) | 0.25 (≈ 0.453 µM) | 8 (≈ 14.5 µM) | 0.006 (≈ 0.0109 µM) | 0.05 (≈ 0.0907 µM) | > 64 | 0.025 (≈ 0.0453 µM) | 0.025 (≈ 0.0453 µM) | 16 (≈ 29 µM) | 8 (≈ 14.5 µM) | 0.1 (≈ 0.181 µM) | 0.5 (≈ 0.907 µM) | 8 (≈ 14.5 µM) | 0.03 (≈ 0.0544 µM)
8 | CC(=O)c1ccc(C#Cc2ccc(CN(C)[C@H](C)[C@](O)(Cn3cncn3)c3ccc(F)cc3F)cc2)cc1 | 16 (≈ 31.1 µM) | 0.013 (≈ 0.0253 µM) | 0.006 (≈ 0.0117 µM) | 0.25 (≈ 0.486 µM) | 4 (≈ 7.77 µM) | 0.006 (≈ 0.0117 µM) | 0.01 (≈ 0.0194 µM) | 16 (≈ 31.1 µM) | 0.013 (≈ 0.0253 µM) | 0.013 (≈ 0.0253 µM) | 16 (≈ 31.1 µM) | 16 (≈ 31.1 µM) | 0.1 (≈ 0.194 µM) | 0.5 (≈ 0.972 µM) | 8 (≈ 15.5 µM) | 0.01 (≈ 0.0194 µM)
9 | C[C@@H](N(C)Cc1ccc(C#Cc2ccc(Cl)cc2)cc1)[C@](O)(Cn1cncn1)c1ccc(F)cc1F | 16 (≈ 31.6 µM) | 0.025 (≈ 0.0493 µM) | 0.006 (≈ 0.0118 µM) | 0.25 (≈ 0.493 µM) | 8 (≈ 15.8 µM) | 0.006 (≈ 0.0118 µM) | 0.03 (≈ 0.0592 µM) | 32 (≈ 63.1 µM) | 0.025 (≈ 0.0493 µM) | 0.025 (≈ 0.0493 µM) | 16 (≈ 31.6 µM) | 8 (≈ 15.8 µM) | 0.1 (≈ 0.197 µM) | 0.5 (≈ 0.986 µM) | 8 (≈ 15.8 µM) | 0.01 (≈ 0.0197 µM)
10 | CCOC(=O)c1ccc(C#Cc2ccc(CN(C)CC(O)(Cn3cncn3)c3ccc(F)cc3F)cc2)cc1 (stereo not drawn) | – | 0.013 (≈ 0.0245 µM) | 0.013 (≈ 0.0245 µM) | – | – | 0.006 (≈ 0.0113 µM) | 0.1 (≈ 0.188 µM) | – | 0.013 (≈ 0.0245 µM) | 0.025 (≈ 0.0471 µM) | – | – | – | – | – | 0.2 (≈ 0.377 µM)
11 | CN(Cc1ccc(C#Cc2ccccn2)cc1)CC(O)(Cn1cncn1)c1ccc(F)cc1F (stereo not drawn) | – | 0.25 (≈ 0.544 µM) | 0.013 (≈ 0.0283 µM) | – | – | 0.05 (≈ 0.109 µM) | 1.6 (≈ 3.48 µM) | – | 0.013 (≈ 0.0283 µM) | 0.2 (≈ 0.435 µM) | – | – | – | – | – | 0.4 (≈ 0.871 µM)
